Patent US8147872B2, “Pharmaceutical compositions of drugs and neutralized acidic polymers” (Bend Reseach, Inc., priority 2001, dated 2012)
Each block holds one molecule with its values, some of them ahead of it.

How the values were obtained:
[1] = In vitro dissolution test of Drug 2 compositions in PBS pH 6.5 (microcentrifuge method, HPLC); assay type: physicochemical; design: AUC90: tested at 2000 µg/mL
Protocol: (§1) For this test, 14.4 mg of the dispersion was added to a microcentrifuge tube for a total Drug 2 concentration of approximately 2000 μg/mL if all of the drug were to dissolve completely. The tube was placed in a 37° C. temperature-controlled chamber, and 1.8 mL PBS as pH 6.5 and 290 mOsm/kg was added. The samples were quickly mixed using a vortex mixer for about 60 seconds. The samples were centrifuged at 13,000 G at 37° C. for 1 minute. The resulting supernatant solution was then sampled and diluted 1:6 (by volume) with methanol and then analyzed by high-performance liquid chromatography (HPLC). The contents of the tubes were mixed on the vortex mixer and allowed to stand undisturbed at 37° C. until the next sample was taken. Samples were collected at 4, 10, 20, 40, 90, and 1200 minutes.
For comparison, a Control C4 consisting of 3.6 mg of crystalline Drug 2 was added to PBS for a total concentration of 2000 μg/mL.
For this test, 14.4 mg of the dispersion was added to a microcentrifuge tube for a total Drug 2 concentration of approximately 2000 μg/mL if all of the drug were to dissolve completely. The dissolution test was performed as described in Example 9. Control C4 (consisting of 3.6 mg of crystalline Drug 2) is shown again for comparison.

[2] = In vitro dissolution test of Drug 3 compositions in PBS with 0.5 wt % NaTC/POPC; assay type: physicochemical; conditions: for Drug 3 Concentration: approx. 200 μg/mL if all dissolved
Protocol: as §1
For these tests, 1.44 mg of each dispersion was added to a microcentrifuge tube containing PBS with 0.5 wt % sodium taurocholic acid and 1-palmitoyl-2-oleyl-sn-glycero-3-phosphocholine (“NaTC/POPC,” with a 4/1 weight ratio), for a total Drug 3 concentration of approximately 200 μg/mL if all of the drug were to dissolve completely. For Controls C5, C6, and C7 (with Drug 3B), 1.57 mg of each dispersion was added to PBS containing 0.5 wt % NaTC/POPC to yield approximately 200 μg/mL of active Drug 3. Control C8 consisted of 0.36 mg of crystalline Drug 3A. The dissolution tests were performed as described in Example 9.

AUC90 ([1]; Drug 2, PBS pH 6.5, 37° C.): 10,300 min * μg/mL | Cmax90 ([1]; Drug 2, PBS pH 6.5, 37° C.): 131 µg/mL | AUC ([1]; Table 4, time 0 min, PBS pH 6.5, 37° C.): 0 µg·h/mL | AUC ([1]; Table 4, time 4 min, PBS pH 6.5, 37° C.): 5 µg·h/mL | AUC ([1]; Table 4, time 10 min, PBS pH 6.5, 37° C.): 16.7 µg·h/mL | AUC ([1]; Table 4, time 20 min, PBS pH 6.5, 37° C.): 36.7 µg·h/mL | AUC ([1]; Table 4, time 40 min, PBS pH 6.5, 37° C.): 75 µg·h/mL | AUC ([1]; Table 4, time 90 min, PBS pH 6.5, 37° C.): 172 µg·h/mL | AUC ([1]; Table 4, time 1200 min, PBS pH 6.5, 37° C.): 2000 µg·h/mL | AUC ([1]; Table 5, AUC90 according to the text, PBS pH 6.5): 172 µg·h/mL | Drug 2 Concentration ([1]; Table 5, Cmax90 according to the text, PBS pH 6.5): 131 µg/mL | AUC ([1]; time 0 min, PBS pH 6.5, 37° C.): 0 µg·h/mL | Drug 2 Concentration ([1]; time 0 min, PBS pH 6.5, 37° C., approx. 2000 μg/mL if all dissolved): 0 µg/mL | AUC ([1]; time 4 min, PBS pH 6.5, 37° C.): 5 µg·h/mL | Drug 2 Concentration ([1]; time 4 min, PBS pH 6.5, 37° C., approx. 2000 μg/mL if all dissolved): 131 µg/mL | AUC ([1]; time 10 min, PBS pH 6.5, 37° C.): 1,000 min * μg/mL | Drug 2 Concentration ([1]; time 10 min, PBS pH 6.5, 37° C., approx. 2000 μg/mL if all dissolved): 114 µg/mL | AUC ([1]; time 20 min, PBS pH 6.5, 37° C.): 2,200 min * μg/mL | Drug 2 Concentration ([1]; time 20 min, PBS pH 6.5, 37° C., approx. 2000 μg/mL if all dissolved): 124 µg/mL | AUC ([1]; time 40 min, PBS pH 6.5, 37° C.): 4,500 min * μg/mL | Drug 2 Concentration ([1]; time 40 min, PBS pH 6.5, 37° C., approx. 2000 μg/mL if all dissolved): 107 µg/mL | AUC ([1]; time 90 min, PBS pH 6.5, 37° C.): 10,300 min * μg/mL | Drug 2 Concentration ([1]; time 90 min, PBS pH 6.5, 37° C., approx. 2000 μg/mL if all dissolved): 126 µg/mL | AUC ([1]; time 1200 min, PBS pH 6.5, 37° C.): 120,200 min * μg/mL | Drug 2 Concentration ([1]; time 1200 min, PBS pH 6.5, 37° C., approx. 2000 μg/mL if all dissolved): 72 µg/mL
Structure (SMILES): O=C(N[C@@H](Cc1ccccc1)[C@@H](O)C(=O)N1C[C@@H](O)[C@@H](O)C1)c1cc2cc(Cl)ccc2[nH]1 [Example C4, 5-chloro-1H-indole-2-carboxylic acid[(1S)-benzyl-3-((3R,4S)-dihydroxypyrrolidin-1-yl)-(2R)-hydroxy-3-oxypropyl]amide]

Cmax90 ([2]; Drug 3): 2 µg/mL | AUC ([2]; Drug 3, time 0 min): 0 µg·min/mL | AUC ([2]; Drug 3, time 4 min): 0 µg·min/mL | AUC ([2]; Drug 3, time 10 min): 0 µg·min/mL | AUC ([2]; Drug 3, time 20 min): 0 µg·min/mL | AUC ([2]; Drug 3, time 40 min): 0 µg·min/mL | AUC ([2]; Drug 3, time 90 min): 100 µg·min/mL | AUC ([2]; Drug 3, time 1200 min): 1,800 min * μg/mL | AUC ([2]; Table 9, AUC90 according to the text, Drug 3): 100 µg·min/mL | Drug 3 Concentration ([2]; time 0 min): 0 µg/mL | Drug 3 Concentration ([2]; time 4 min): 1 µg/mL | Drug 3 Concentration ([2]; time 10 min): 1 µg/mL | Drug 3 Concentration ([2]; time 20 min): 1 µg/mL | Drug 3 Concentration ([2]; time 40 min): 2 µg/mL | Drug 3 Concentration ([2]; time 90 min): 1 µg/mL | Drug 3 Concentration ([2]; time 1200 min): 2 µg/mL
Structure (SMILES): O=C1Cc2cc(CCN3CCN(c4nsc5ccccc45)CC3)c(Cl)cc2N1 [Example C8, ziprazidone]
